The source of these data is US11617748B2, “Meclozine derivatives and diclazuril derivatives for use in the prevention and/or the treatment of disorders associated to the inflammation induced by P. acnes” (priority 2016, dated 2023).

One assay deals with IL-8 production. In words: P. acnes-induced IL-8 production in HaCaT keratinocytes (ELISA). Type of assay: cell-based, human. The conditions noted are these: for reduction of IL-8 production, 24 h pre-treatment / effect on IL-8 production (time course, FIG. 4A) / effect on IL-8 production at 12.5 μM, in words / reduction of IL-8 production, 1 and 6 h pre-treatment / decrease of IL-8 production, 48 h pre-treatment: HaCaT; for reduction of IL-8 production, 24 h pre-treatment: 6.25 μM; for reduction of IL-8 production, 24 h pre-treatment / reduction of IL-8 production, 1 and 6 h pre-treatment / decrease of IL-8 production, 48 h pre-treatment: P. acnes 18 h; for effect on IL-8 production (time course, FIG. 4A): 10 μM, P. acnes 15-180 min; for reduction of IL-8 production, 24 h pre-treatment / effect on IL-8 production (time course, FIG. 4A): 24 h pre-treatment; for effect on IL-8 production at 12.5 μM, in words: 24 h pre-treatment (FIG. 8B); for reduction of IL-8 production, 1 and 6 h pre-treatment: 0.39 to 12.5 μM; for IC50: Homo sapiens, HaCaT cells pre-treated 24 h, then stimulated with P. acnes, read-out: IC50 of inhibition of IL-8 production. The method, then:
Bacterial strain and conditions of growth. P. acnes strain 6919 was obtained from the American Type Culture Collection (Manassas, Va.) and P. acnes strains RON and PIE were isolated from patient with joint infection. All strains were grown under anaerobic conditions in reinforced clostridial liquid and solid medium (RCM) (Difco Laboratories, Detroit, Mich.). P. acnes was transferred from the bacterial stock onto RCM agar plate and incubated for 5 days under anaerobic condition by using a GasPak™ EZ Anaerobic Container System (Becton Dickinson & Co, Sparks Md., USA). A single colony was transferred into 100 ml RCM and grown as described above. Bacterial suspension was then store frozen at −80° C. in presence of 10% glycerol final. This stock was called «start stock» and used for all the experiments. For routine culture, 100 ml of RCM was used and bacteria were harvested after 5 days at 37° C. by centrifugation at 7,000×g for 10 min at 4° C. Pellets were pooled and washed in about 30 ml of cold sterile PBS [1.5 mM KH2PO4, 2.7 mM Na2HPO4.7H2O, 0.15 M NaCl (pH 7.4)] and centrifuged again as described above. Finally, the bacterial pellet was suspended in sterile PBS (1:10 from volume culture).
Cell culture, pretreatment and stimulation. The immortalized human keratinocyte cell line HaCaT, fibroblast MRC5 were grown in Dulbecco's modified Eagle's medium-Glutamax-I (DMEM) with 1 mM sodium pyruvate. The immortalized human monocytic cell line ThP1 was grown in Roswell Park Memorial Institute 1640 Medium-Glutamax-I (RPMI). DMEM and RPMI were supplemented with 0.1% and 10% heat-inactivated fetal calf serum (Invitrogen), and an antibiotic/antimycotic solution (10 U/ml Pencillin, 10 μg/ml Streptomycin, 0.25 μg/ml Amphoterin) at 37° C. in humidified atmosphere containing 5% CO2 as described (Life Technologie). Primary human keratinocytes (NHDK) and fibroblast (HDF) were grown in the KGM-Gold and in FGM-2 Bullet Kit, respectively, as described by the manufacturer (Lonza). The immortalized cell lines were routinely tested to assess the absence of Mycoplasma infection. Cells, cultivated in 6- or 96-well polystyrene plates, were pretreated with appropriate molecule solution for 1 to 48 h at 37° C. in the dark at the appropriate concentration. Then, for stimulation, cells were incubated for 15 min to 24 h with the P. acnes suspension adjusted at the appropriate concentration at 37° C. in 5% CO2. For experiences using an in vitro model of psoriasis, the primary human keratinocytes (NHDK) were grown in culture medium for 24 hours. The medium was removed and replaced with culture medium containing meclozine, diclazuril and JAK inhibitor (used as positive control) at the concentrations of 0.39, 0.78, 1.56, 3.12, 6.25 and 12.5 μM and the pro-inflammatory mixture M5 (combination of IL-17A, OSM, TNF-α, IL-22, IL-1α at 10 ng/ml) was added to the cells followed by an incubation for 48 or 72 hours.
ELISA. Human IL-1β, IL-8, hBD-2 and TNF-α protein concentration were measured in the supernatants of stimulated cells using various ELISA Sets (all from Ready-Set-Go from eBioscience, except hBD-2 measurements: Human DEFB4A/BD-2 ELISA Kit from LSBio) according to the manufacturer's instructions. We used serial dilutions of recombinant human IL-1β, IL-8, hBD-2 and TNF-α for standard curve. The optical density was determined at 450 nm at a wavelength correction of 540 nm.
Both molecules, diclazuril and meclozine, were purchased separately from Sigma and tested independently on immortalized keratinocytes HaCaT cell for their capacity to inhibit the IL-8 production in a dose-dependent manner. HaCaT cells were pre-treated with diclazuril and meclozine, at the concentrations ranging from 0.39 to 50 μM, for 24 h and then stimulated with P. acnes suspension as described in Materials and Methods. The production of IL-8 was measured on culture supernatant by ELISA and the viability of cells was estimated by MTT assay (FIG. 1).

In another assay the test system is IL-1β production. As to the kind of experiment: P. acnes-induced IL-1β production in ThP-1 monocytes (ELISA). In kind it is cell-based. Particulars: Homo sapiens; ThP-1 cells pre-treated 24 h, then stimulated with P. acnes; read-out: IC50 of inhibition of IL-1β production. On the procedure:
Bacterial strain and conditions of growth. P. acnes strain 6919 was obtained from the American Type Culture Collection (Manassas, Va.) and P. acnes strains RON and PIE were isolated from patient with joint infection. All strains were grown under anaerobic conditions in reinforced clostridial liquid and solid medium (RCM) (Difco Laboratories, Detroit, Mich.). P. acnes was transferred from the bacterial stock onto RCM agar plate and incubated for 5 days under anaerobic condition by using a GasPak™ EZ Anaerobic Container System (Becton Dickinson & Co, Sparks Md., USA). A single colony was transferred into 100 ml RCM and grown as described above. Bacterial suspension was then store frozen at −80° C. in presence of 10% glycerol final. […]
ELISA. Human IL-1β, IL-8, hBD-2 and TNF-α protein concentration were measured in the supernatants of stimulated cells using various ELISA Sets (all from Ready-Set-Go from eBioscience, except hBD-2 measurements: Human DEFB4A/BD-2 ELISA Kit from LSBio) according to the manufacturer's instructions. […] The optical density was determined at 450 nm at a wavelength correction of 540 nm.
Both molecules, were tested to inhibit the production of IL-1β by the monocytic cell line. […] The production of IL-1β was measured on culture supernatant by ELISA and the viability of cells was estimated by MTT assay (FIG. 2).

Broadly, the IC50 is the concentration that gives 50% inhibition. Take `N#CC(c1ccc(Cl)cc1)c1c(Cl)cc(-n2ncc(=O)[nH]c2=O)cc1Cl` (centres unmarked) [diclazuril, Diclazuril]: in the assay on IL-8 production, the “reduction of IL-8 production, 24 h pre-treatment” value was determined as 36%; the “effect on IL-8 production (time course, FIG. 4A)” value is listed as “inhibit”; the “effect on IL-8 production at 12.5 μM, in words” value is recorded as “strong effect”; the “reduction of IL-8 production, 1 and 6 h pre-treatment” value was “did not reduce significantly”. Besides, in the assay with IL-8 production, the “decrease of IL-8 production, 48 h pre-treatment” value is reported as 65% and the IC50 was about 6 µM. Further, in the assay with IL-1β production, the IC50 is about 3 µM.

Take `Cc1cccc(CN2CCN(C(c3ccccc3)c3ccc(Cl)cc3)CC2)c1` (centres unmarked) [meclozine, Meclozine]: in the assay on IL-8 production, the “reduction of IL-8 production, 24 h pre-treatment” value is reported as 63%; the “effect on IL-8 production (time course, FIG. 4A)” value was “inhibit”; the “effect on IL-8 production at 12.5 μM, in words” value is “strong effect”; the “reduction of IL-8 production, 1 and 6 h pre-treatment” value was “did not reduce significantly”. In the assay on IL-8 production, the “decrease of IL-8 production, 48 h pre-treatment” value was 78% and the IC50 is about 3 µM. Moreover, the IC50 in the assay with IL-1β production was about 6 µM.
